Test results published in US20060008574A1, “Galactosyl isomalt, method for production and use thereof” (priority 2002, published 2006).

Experiments:
[1] = test system: pancreatin enzyme (Sigma); assay: Stability with respect to pancreatic enzymes; type: in vitro ADME; settings: 1% solution, 0.2% pancreatin, pH 7.0, 210 min at 37° C.
Protocol: The pancreatic secretion contains a large number of hydrolases, including carbohydrate-degrading enzymes like α-amylase, which breaks down α-1,4-glucans (starch, glycogen) preferably to maltose and maltooligosaccharides. The test of the stability of saccharides with respect to pancreatic enzymes is carried out as follows.
3.0 mL of a carbohydrate solution (solution 2 to solution 6) is mixed with 0.1 mL of the enzyme solution (solution 7) per batch:
Solution 1: 20 mmol/L Na phosphate buffer, pH 7.0, with 6 mmol/L NaCl
Solution 2: 1% solution of β-1,4-galactosyl isomalt mixture in accordance with the invention, prepared according to Example 2 and Example 4, in solution 1
Solution 3: 1% solution of β-1,3-galactosyl isomalt mixture in accordance with the invention, prepared according to Example 1 and Example 4, in solution 1
Solution 4: 1% solution of β-1,6-galactosyl isomalt mixture in accordance with the invention; prepared according to Example 3 and Example 4, in solution 1
Solution 6: 1% starch solution (soluble starch, according to Zulkowski), in solution 1
Solution 7: 0.2% pancreatin enzyme (Sigma), dissolved in solution 1
After 210 min incubation in a thermomixer (interval shaking) at 37° C., the reaction is stopped by heating to 95° C. for 15 min and the samples are analyzed by HPAEC. The starch-containing sample (solution6+solution 7) is completely hydrolyzed before the HPAEC analysis by heating for 3 h in 1 mol/L hydrochloric acid at 95° C., and the glucose resulting from this is determined in order to calculate the starch content of the sample.

human feces = assay: In vitro fermentation in human feces; type: cell-based; settings: for Degradation rate: 0.5% (w/v) substrate, feces suspension, anaerobic, 37° C.
Protocol: Incubation of carbohydrates with human feces allows statements to be made about the rate of metabolization by the bacterial population and formation of the short-chain fatty acid butyric acid.
To invest the fermentability in an in vitro fermentation experiment, Raftilose® P95 (fructooligosaccharides, DP4-5), galactosyl lactose (Oligomate DP 3) and lactosucrose were used for comparison as carbohydrates of similar structure and degree of polymerization, in addition to β-galactosyl isomalts.
An anaerobic medium of the following composition was used for the in vitro experiments:
9 mL of the anaerobic medium 1 described above are mixed with 0.5% (w/v) of the galactosyl isomalts to be tested (prepared according to Examples 1-3) and the corresponding controls lactosucrose and galactosyl lactose and then inoculated with 1 mL of a 10% feces suspension (mixed feces from two subjects) in anaerobic 50 mmol/L phosphate buffer, pH 7.0, to which 0.5 g/L cysteine/HCl was added beforehand as reducing agent.
The batches are then incubated in “Hungate” test tubes for a maximum of 28 h while shaking at 37° C. Samples are taken at various times and tested for content of residual oligosaccharides, short-chain fatty acids, lactic acid and pH.

[2] = test system: B. adolescentis DSM 20083; assay: Fermentation by human bifidobacteria; type: cell-based; parameters: key: −: no decomposition; +: decomposition and metabolization of galactose from β-1,3-galactosyl isomalt; ++: decomposition and metabolization of galactose and glucose from β-1,3-galactosyl isomalt; +++: complete decomposition of β-1,3-galcatosyl isomalt; settings: medium 2, 48 h
Protocol: (§1) To investigate the prebiotic and bifidogenic properties of galactosyl isomalt, the growth of various human bifidobacteria was investigated on this substrate in vitro. An anaerobic medium of the following composition was used:
(§2) 22 strains of human bifidobacteria were first precultured in “Hungate” test tubes on the above medium 1, in which the source of carbohydrate had first been replaced by glucose (10 g/L). The strains were then inoculated onto medium 2, incubated for 48 h, and then the optical density (E578), the pH, the formation of acetate and lactate and the decrease of the β-1,3-galactosyl isomalt concentration were determined.
(§3) Various decomposition paths are distinguished with regard to the metabolization of galactosyl isomalt. Some strains degrade galactose from the substrate with a β-galactosidase and metabolize this monosaccharide (+).
(§4) Other strains additionally degrade glucose from the resulting isomalt, in addition to galactose, metabolize both monosaccharides, while this is not true for the resulting mannitol or sorbitol (++). The third group is capable of utilizing galactosyl isomalt as a substrate and also metabolizing mannitol and sorbitol (+++).

B. angulatum DSM 20225 = assay: Fermentation by human bifidobacteria; type: cell-based; parameters: key: −: no decomposition; +: decomposition and metabolization of galactose from β-1,3-galactosyl isomalt; ++: decomposition and metabolization of galactose and glucose from β-1,3-galactosyl isomalt; +++: complete decomposition of β-1,3-galcatosyl isomalt; settings: medium 2, 48 h
Protocol: as §1, §2, §3, §4

B. bifidum DSM 20082 = assay: Fermentation by human bifidobacteria; type: cell-based; parameters: key: −: no decomposition; +: decomposition and metabolization of galactose from β-1,3-galactosyl isomalt; ++: decomposition and metabolization of galactose and glucose from β-1,3-galactosyl isomalt; +++: complete decomposition of β-1,3-galcatosyl isomalt; settings: medium 2, 48 h
Protocol: as §1, §2, §3, §4

B. bifidum DSM 20215 = assay: Fermentation by human bifidobacteria; type: cell-based; parameters: key: −: no decomposition; +: decomposition and metabolization of galactose from β-1,3-galactosyl isomalt; ++: decomposition and metabolization of galactose and glucose from β-1,3-galactosyl isomalt; +++: complete decomposition of β-1,3-galcatosyl isomalt; settings: medium 2, 48 h
Protocol: as §1, §2, §3, §4

B. bifidum DSM 20456 = assay: Fermentation by human bifidobacteria; type: cell-based; parameters: key: −: no decomposition; +: decomposition and metabolization of galactose from β-1,3-galactosyl isomalt; ++: decomposition and metabolization of galactose and glucose from β-1,3-galactosyl isomalt; +++: complete decomposition of β-1,3-galcatosyl isomalt; settings: medium 2, 48 h
Protocol: as §1, §2, §3, §4

B. catenulatum DSM 20103 = assay: Fermentation by human bifidobacteria; type: cell-based; parameters: key: −: no decomposition; +: decomposition and metabolization of galactose from β-1,3-galactosyl isomalt; ++: decomposition and metabolization of galactose and glucose from β-1,3-galactosyl isomalt; +++: complete decomposition of β-1,3-galcatosyl isomalt; settings: medium 2, 48 h
Protocol: as §1, §2, §3, §4

B. infantis DSM 20218 = assay: Fermentation by human bifidobacteria; type: cell-based; parameters: key: −: no decomposition; +: decomposition and metabolization of galactose from β-1,3-galactosyl isomalt; ++: decomposition and metabolization of galactose and glucose from β-1,3-galactosyl isomalt; +++: complete decomposition of β-1,3-galcatosyl isomalt; settings: medium 2, 48 h
Protocol: as §1, §2, §3, §4

[3] = test system: B. pseudocatenulatum DSM 20438; assay: Fermentation by human bifidobacteria; type: cell-based; parameters: key: −: no decomposition; +: decomposition and metabolization of galactose from β-1,3-galactosyl isomalt; ++: decomposition and metabolization of galactose and glucose from β-1,3-galactosyl isomalt; +++: complete decomposition of β-1,3-galcatosyl isomalt; settings: medium 2, 48 h
Protocol: as §1, §2, §3, §4

With OCC1O[C@H](OC[C@@H](O)[C@@H](O)[C@H](O)C(O)CO)C(O)C(O[C@@H]2OC(CO)[C@H](O)C(O)C2O)[C@@H]1O (mixture of isomers) [β-1,3-Galactosyl isomalt, β-D-galactosyl-(1→3)-α-D-glucosyl-(1→6)-D-sorbitol(β-1,3-galactosyl-1,6-GPS) and β-D-galactosyl-(1→3)-α-D-glucosyl-(1→1)-D-mannitol(β-1,3-galactosyl-1,1-GPM)] the “Decomposition rate [%]” value [1] was <1%, the “Butyrate content (end sample)” value (human feces; end of fermentation with human feces) was 13.3 mmol/L and the Degradation rate (human feces; incubation time 7 (h)) was 62%. The Degradation rate (human feces; incubation time 22 (h)) was 93.6%, the Degradation rate (human feces; incubation time 28 (h)) was 97% and the “Growth on β-1,3-galactosyl isomalt” value [2] was “+++”. For the same molecule, the “Growth on β-1,3-galactosyl isomalt” value (B. angulatum DSM 20225) was “++”, the “Growth on β-1,3-galactosyl isomalt” value (B. bifidum DSM 20082) was “+” and the “Growth on β-1,3-galactosyl isomalt” value (B. bifidum DSM 20215) was “+”. For the same molecule, the “Growth on β-1,3-galactosyl isomalt” value (B. bifidum DSM 20456) was “−”, the “Growth on β-1,3-galactosyl isomalt” value (B. catenulatum DSM 20103) was “++” and the “Growth on β-1,3-galactosyl isomalt” value (B. infantis DSM 20218) was “−”. For the same molecule, the “Growth on β-1,3-galactosyl isomalt” value [3] was “++”.
